PubChem BioAssay AID1963429 (Molecular Pharmacology Branch, DTP, NCI, 2024)

System: 126254-015-R-J1-PDC complex spheroid growth, % test/control
Assay: Anticancer human tumor 126254-015-R-J1-PDC patient-derived soft tissue sarcoma cell line growth inhibition [Asc]
Conditions: for IC50: curve of first compound; for viability, T/C: stronger effect = lower value
How it was run: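 Tumor cells were grown as complex spheroids with human endothelial cells (HUVEC) and human mesenchymal stem cells as stroma. Agents were tested alone and in combination, in half-log steps down from the clinical Cmax, or from 10 microM where Cmax was unknown.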

[1] = second compound 0.1 µM, first compound 0.0316 µM
[2] = second compound 0.1 µM, first compound 0.1 µM
[3] = second compound 0.316 µM, first compound 0.0316 µM
[4] = second compound 0.316 µM, first compound 0.1 µM
[5] = second compound 1 µM, first compound 0.0316 µM
[6] = second compound 1 µM, first compound 0.1 µM
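Also: spheroids exposed to compound for seven days.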
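For viability, T/C in this document: 100% = DMSO vehicle control wells.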

NC1CCC(NC2CC2c2ccccc2)CC1 (stereo not given) + Cc1c(S(C)(=O)=O)c(-c2cc(F)cc(N3CCN(c4ccc(NS(=O)(=O)c5ccc(NC(CCN6CCC(C(=O)OCCCP(=O)(O)O)CC6)CSc6ccccc6)c(S(=O)(=O)C(F)(F)F)c5)cc4)CC3)c2)c(-c2ccc(Cl)cc2)n1C(C)C
IC50 (second compound 0.1 µM): > 0.1 µM | IC50 (second compound 0.316 µM): > 0.1 µM | IC50 (second compound 1 µM): > 0.1 µM | IC50 (second compound 3.16 µM): > 0.1 µM | IC50 (second compound 10 µM): > 0.1 µM | viability, T/C (second compound 0.1 µM, first compound 0.000316 µM): 94.6% | viability, T/C (second compound 0.1 µM, first compound 0.001 µM): 88.8% | viability, T/C (second compound 0.1 µM, first compound 0.00316 µM): 76.7% | viability, T/C (second compound 0.1 µM, first compound 0.01 µM): 75.4% | viability, T/C [1]: 84% | viability, T/C [2]: 77.6% | viability, T/C (second compound 0.316 µM, first compound 0.000316 µM): 74.4% | viability, T/C (second compound 0.316 µM, first compound 0.001 µM): 76.5% | viability, T/C (second compound 0.316 µM, first compound 0.00316 µM): 75.3% | viability, T/C (second compound 0.316 µM, first compound 0.01 µM): 70.1% | viability, T/C [3]: 66.5% | viability, T/C [4]: 76.1% | viability, T/C (second compound 1 µM, first compound 0.000316 µM): 79% | viability, T/C (second compound 1 µM, first compound 0.001 µM): 81.2% | viability, T/C (second compound 1 µM, first compound 0.00316 µM): 73.1% | viability, T/C (second compound 1 µM, first compound 0.01 µM): 71.4% | viability, T/C [5]: 73.8% | viability, T/C [6]: 60.3% | viability, T/C (second compound 3.16 µM, first compound 0.000316 µM): 81.5% | viability, T/C (second compound 3.16 µM, first compound 0.001 µM): 73.1% | viability, T/C (second compound 3.16 µM, first compound 0.00316 µM): 73.9% | viability, T/C (second compound 3.16 µM, first compound 0.01 µM): 71.2% | viability, T/C (second compound 3.16 µM, first compound 0.0316 µM): 62.3% | viability, T/C (second compound 3.16 µM, first compound 0.1 µM): 65% | viability, T/C (second compound 10 µM, first compound 0.000316 µM): 69.6% | viability, T/C (second compound 10 µM, first compound 0.001 µM): 69.1% | viability, T/C (second compound 10 µM, first compound 0.00316 µM): 70.4% | viability, T/C (second compound 10 µM, first compound 0.01 µM): 71.3% | viability, T/C (second compound 10 µM, first compound 0.0316 µM): 61.1% | viability, T/C (second compound 10 µM, first compound 0.1 µM): 58.2%

O=C(c1cc(Cc2n[nH]c(=O)c3ccccc23)ccc1F)N1CCN(C(=O)C2CC2)CC1 + CNC(C)C(=O)NC1CN(S(=O)(=O)c2cccc(S(=O)(=O)N3CCC4CCC(C(=O)NC(c5ccccc5)c5ccccc5)N4C(=O)C(NC(=O)C(C)NC)C3)c2)CCC2CCC(C(=O)NC(c3ccccc3)c3ccccc3)N2C1=O
IC50 (second compound 0.01 µM): 9.05 µM | IC50 (second compound 0.0316 µM): 6.18 µM | IC50 (second compound 0.1 µM): 2.77 µM | IC50 (second compound 0.316 µM): 3.61 µM | IC50 (second compound 1 µM): 1.85 µM | viability, T/C (second compound 0.01 µM, first compound 0.0316 µM): 97.3% | viability, T/C (second compound 0.01 µM, first compound 0.1 µM): 89.8% | viability, T/C (second compound 0.01 µM, first compound 0.316 µM): 94.5% | viability, T/C (second compound 0.01 µM, first compound 1 µM): 82.8% | viability, T/C (second compound 0.01 µM, first compound 3.16 µM): 77.6% | viability, T/C (second compound 0.01 µM, first compound 10 µM): 47.1% | viability, T/C (second compound 0.0316 µM, first compound 0.0316 µM): 85.1% | viability, T/C (second compound 0.0316 µM, first compound 0.1 µM): 82.4% | viability, T/C (second compound 0.0316 µM, first compound 0.316 µM): 78.2% | viability, T/C (second compound 0.0316 µM, first compound 1 µM): 80.2% | viability, T/C (second compound 0.0316 µM, first compound 3.16 µM): 55.1% | viability, T/C (second compound 0.0316 µM, first compound 10 µM): 46.3% | viability, T/C [1]: 66.2% | viability, T/C [2]: 77.8% | viability, T/C (second compound 0.1 µM, first compound 0.316 µM): 75.4% | viability, T/C (second compound 0.1 µM, first compound 1 µM): 59.6% | viability, T/C (second compound 0.1 µM, first compound 3.16 µM): 49.8% | viability, T/C (second compound 0.1 µM, first compound 10 µM): 27.4% | viability, T/C [3]: 62.2% | viability, T/C [4]: 56.4% | viability, T/C (second compound 0.316 µM, first compound 0.316 µM): 59.7% | viability, T/C (second compound 0.316 µM, first compound 1 µM): 57.8% | viability, T/C (second compound 0.316 µM, first compound 3.16 µM): 52.9% | viability, T/C (second compound 0.316 µM, first compound 10 µM): 29% | viability, T/C [5]: 54.7% | viability, T/C [6]: 62.2% | viability, T/C (second compound 1 µM, first compound 0.316 µM): 61.4% | viability, T/C (second compound 1 µM, first compound 1 µM): 54.9% | viability, T/C (second compound 1 µM, first compound 3.16 µM): 44.9% | viability, T/C (second compound 1 µM, first compound 10 µM): 22.2%

C=C(F)C(=O)N1CCN(c2nc(OCC3CCCN3C)nc3c2CCN(c2cccc4cccc(Cl)c24)C3)CC1CC#N (stereo not given) + CCN1C(C(=O)NC23CCC(C(=O)O)(CC2)CC3)C(c2cccc(Cl)c2F)C2(C(=O)Nc3cc(Cl)ccc32)C12CCCCC2
IC50 (second compound 0.03 µM): 2.43 µM | IC50 (second compound 0.0949 µM): 2.64 µM | IC50 (second compound 0.3 µM): 2.73 µM | IC50 (second compound 0.949 µM): 2.74 µM | IC50 (second compound 3 µM): 2.92 µM | viability, T/C (second compound 0.03 µM, first compound 0.0316 µM): 105% | viability, T/C (second compound 0.03 µM, first compound 0.1 µM): 103% | viability, T/C (second compound 0.03 µM, first compound 0.316 µM): 102% | viability, T/C (second compound 0.03 µM, first compound 1 µM): 95.9% | viability, T/C (second compound 0.03 µM, first compound 3.16 µM): 36.5% | viability, T/C (second compound 0.03 µM, first compound 10 µM): 0.16% | viability, T/C (second compound 0.0949 µM, first compound 0.0316 µM): 101% | viability, T/C (second compound 0.0949 µM, first compound 0.1 µM): 104% | viability, T/C (second compound 0.0949 µM, first compound 0.316 µM): 94.9% | viability, T/C (second compound 0.0949 µM, first compound 1 µM): 93.8% | viability, T/C (second compound 0.0949 µM, first compound 3.16 µM): 41.9% | viability, T/C (second compound 0.0949 µM, first compound 10 µM): 0.16% | viability, T/C (second compound 0.3 µM, first compound 0.0316 µM): 101% | viability, T/C (second compound 0.3 µM, first compound 0.1 µM): 105% | viability, T/C (second compound 0.3 µM, first compound 0.316 µM): 97.4% | viability, T/C (second compound 0.3 µM, first compound 1 µM): 93.9% | viability, T/C (second compound 0.3 µM, first compound 3.16 µM): 43.6% | viability, T/C (second compound 0.3 µM, first compound 10 µM): 0.16% | viability, T/C (second compound 0.949 µM, first compound 0.0316 µM): 107% | viability, T/C (second compound 0.949 µM, first compound 0.1 µM): 123% | viability, T/C (second compound 0.949 µM, first compound 0.316 µM): 100% | viability, T/C (second compound 0.949 µM, first compound 1 µM): 101% | viability, T/C (second compound 0.949 µM, first compound 3.16 µM): 42.7% | viability, T/C (second compound 0.949 µM, first compound 10 µM): 0.17% | viability, T/C (second compound 3 µM, first compound 0.0316 µM): 104% | viability, T/C (second compound 3 µM, first compound 0.1 µM): 114% | viability, T/C (second compound 3 µM, first compound 0.316 µM): 103% | viability, T/C (second compound 3 µM, first compound 1 µM): 98.9% | viability, T/C (second compound 3 µM, first compound 3.16 µM): 46.3% | viability, T/C (second compound 3 µM, first compound 10 µM): 0.21%
